Measurements reported in patent publication US6521265B1, “Method for applying a blood clotting agent” (Biolife, L.L.C., priority 2000, dated 2003).

System: blood flowing from an open wound
Assay: Potassium ferrate used on blood flowing from an open wound
Conditions: in vivo
Description: The apparent chemical ferrate reaction with water found in blood is as follows:
As provided by the above compounds, a method of arresting blood and body fluid flow from an open skin wound is provided. An effective amount of any of the above salt ferrates, and preferably potassium ferrate in powder form, is applied directly onto the wound to interact with flowing blood or body fluid to accelerate its clotting.

## potassium ferrate
  clotting of blood flowing from an open wound: effectively accomplishes the accelerated clotting of blood
